Assay: differential scanning calorimetry (DSC) of amorphous sirolimus
Type: physicochemical
Details: DSC curve for this sample (FIG. 6); about 3 mg, heating rate 2° C./min, -40 to 200° C., nitrogen flow
Procedure: In another test, the amorphous sirolimus is analyzed utilizing differential scanning calorimetry (DSC). Essentially, the purpose of this test is to determine the glass transition temperature of the amorphous sirolimus. In this test, approximately 3 mg of amorphous sirolimus is transferred into a standard aluminum TA-Instrument sample pan and covered. The DSC curve is recorded on a TA-Instruments Q1000 MTDSC equipped with a RCS cooling unit. FIG. 6 illustrates a differential scanning calorimetry (DSC) curve of amorphous sirolimus. […] Based on a number of scans, the glass transition temperatures may be in the range from about 92 degrees C. to about 95 degrees C.

glass transition temperature: about 93 degrees C.
Compound: CO[C@H]1C[C@@H]2CC[C@@H](C)[C@@](O)(O2)C(=O)C(=O)N2CCCC[C@H]2C(=O)O[C@H]([C@H](C)C[C@@H]2CC[C@@H](O)[C@H](OC)C2)CC(=O)[C@H](C)/C=C(\C)[C@@H](O)[C@@H](OC)C(=O)[C@H](C)C[C@H](C)/C=C/C=C/C=C/1C [amorphous sirolimus, sirolimus (rapamycin)]

From patent US7393952B2, “Solvent free amorphous rapamycin” (Cordis Corporation, priority 2004, dated 2008)
